Source: patent US5001048A (priority 1987, dated 1991)
Several values for one entry are separate records, joined by “and”; a condition that tells them apart may be missing. Equal entries are not always repeated. Where two headings read alike, the source gives them in different places.

How the values were obtained:
[1] = system: immobilized acetylcholine receptor (AChR); test: AChR sensor alternating current impedance response to agent challenge; format: binding, Electrophorus electricus; settings: for AChR sensor response: 50 to 100 uL
Protocol: (§1) All measurements utilized wetted biosensors (i.e., sensors presoaked in deionized water and test buffer). The biosensor was washed with deionized water to a constant output value (that is, it maintained the same impedance value upon further washing). This established a baseline value for the sensor in absence of ligand. Test samples in buffer were then added. Output (changes in impedance, etc) was recorded as a function of time.
(§2) Two approaches were used to evaluate the functionality of the two types (i.e., receptor and antibody-based) of biosensors. In the first approach, measurements were taken sequentially on control and test sensors ("chips") and compared. This approach can be done quickly for rapid evaluation of a sensor (FIGS. 1 and 3). However, background (i.e., non specific binding to the sensor) is not subtracted out automatically. […] This allows for simultaneous challenge (i.e., challenge of both the control and the receptor-containing biosensor at the same time) and background is automatically subtracted out.
(§3) In the case in which sequential measurements were used, alternating current measurements were made on the sensors, and changes were recorded in impedance (measured in ohms), capacitance or phase angle. Samples in volumes of 5 to 200 microliters (ul) were analyzed; […].
(§4) Typically, a sample to be tested (i.e., one thought to contain an analyte of interest) was applied to a sensor which had been previously equilibrated with deionized water and readings of output impedance from the sensor were taken. Equilibration to constant readings occurred within 2 to 10 sec. Readings remained stable for at least the 5 minutes during which the output was routinely monitored. The sensor was then washed with deionized water to background equilibrium, sample was again added and readings were taken. In each case 2 to 5 cycles were carried out in this way.

[2] = Control sensor (same formulation, no AChR added) impedance response to agent challenge; settings: 50 to 100 uL
Protocol: as §1, §2, §3, §4
^b Control sensor is the same formulation as AChR but with no AChR

[3] = system: acetylcholine receptor (AChR); format: binding, Electrophorus electricus; settings: for % Activity Increase: 24 to 48 hours after immobilization, over nondetergent containing membrane; for stabilization of AChR activity in the membrane (in words): retention of binding activity at immobilization and after storage

## glucose
[1]; agent 0.5 ug/ml
  % Change of AChR sensor with respect to control: 3%
  AChR sensor response: 29 K.OMEGA.
[1]; agent 5 ug/ml
  % Change of AChR sensor with respect to control: 0%
  AChR sensor response: 33 K.OMEGA.
[1]; agent 50 ug/ml
  % Change of AChR sensor with respect to control: 6%
  AChR sensor response: 35 K.OMEGA.
[1]; agent 500 ug/ml
  % Change of AChR sensor with respect to control: 5%
  AChR sensor response: 61 K.OMEGA.
[1]; dose-response, Table 5
  change in resistance between control and AChR sensors (in words): no change
[2]; agent 0.5 ug/ml
  Control sensor response: 28 K.OMEGA.
[2]; agent 5 ug/ml
  Control sensor response: 33 K.OMEGA.
[2]; agent 50 ug/ml
  Control sensor response: 33 K.OMEGA.
[2]; agent 500 ug/ml
  Control sensor response: 58 K.OMEGA.

## CCCCCCCC[N+](C)(C)CCCS(=O)(=O)[O-] [Zwittergent ™ 3-08, N-octyl-N-N dimethyl-3-amino-1-propane sulfonate]
[3]; detergent 1.0% by volume
  % Activity Increase: 55% and 30%
[3]; detergent 2.0% by volume
  % Activity Increase: 55% and 38%

## octylphenoxy polyethoxyethanol [Triton ™ X-100]
[3]; detergent 0.1% by volume
  % Activity Increase: 12%
[3]; detergent 0.5% by volume
  % Activity Increase: 55%
[3]; detergent 1.0% by volume
  % Activity Increase: 85%
[3]; detergent 2.0% by volume
  % Activity Increase: 110%
[3]
  stabilization of AChR activity in the membrane (in words): best stabilizing detergents

## C[C@H](CCC(=O)O)[C@H]1CC[C@H]2[C@@H]3[C@H](O)C[C@@H]4C[C@H](O)CC[C@]4(C)[C@H]3C[C@H](O)[C@]12C [Sodium cholate, sodium cholate]
[3]; detergent 1.0% by volume
  % Activity Increase: 110%
[3]; detergent 2.0% by volume
  % Activity Increase: 145%
[3]
  stabilization of AChR activity in the membrane (in words): best stabilizing detergents

## CCCCCCCCCCCCCCCC[N+](C)(C)C.[Br-] [CTAB, cetyltrimethylammonium bromide]
[3]; detergent 0.5% by volume
  % Activity Increase: 4%
[3]; detergent 1.0% by volume
  % Activity Increase: 18%
[3]; detergent 2.0% by volume
  % Activity Increase: 28%
